{"source": "ChEMBL document CHEMBL2440076", "about": "“New triarylpyrazoles as broad-spectrum anticancer agents: design, synthesis, and biological evaluation” (Eur J Med Chem, 2013)", "format_in_all_cases": "functional", "key": {"[1]": {"assay": "Growth inhibition of human NCI-ADR-RES cells assessed as cell growth at 3X10'-7 M after 48 hrs by sulforhodamine B assay", "details": "read-out: Activity"}, "[2]": {"system": "SNB-19", "assay": "Growth inhibition of human SNB19 cells assessed as cell growth at 3X10'-7 M after 48 hrs by sulforhodamine B assay", "details": "SNB-19, 48 h, read-out: Activity"}, "[3]": {"system": "HT-29", "assay": "Growth inhibition of human HT-29 cells assessed as cell growth at 3X10'-7 M after 48 hrs by sulforhodamine B assay", "details": "HT-29, 48 h, read-out: Activity"}, "[4]": {"system": "RPMI-8226", "assay": "Growth inhibition of human RPMI8226 cells assessed as cell growth at 3X10'-7 M after 48 hrs by sulforhodamine B assay", "details": "RPMI-8226, 48 h, read-out: Activity"}, "[5]": {"system": "HL-60(TB)", "assay": "Growth inhibition of human HL-60(TB) cells assessed as cell growth at 3X10'-7 M after 48 hrs by sulforhodamine B assay", "details": "HL-60, 48 h, read-out: Activity"}, "[6]": {"system": "MDA-MB-468", "assay": "Growth inhibition of human MDA-MB-468 cells assessed as cell growth at 3X10'-8 M after 48 hrs by sulforhodamine B assay", "details": "MDA-MB-468, 48 h, read-out: Activity"}, "[7]": {"system": "MDA-MB-231", "assay": "Growth inhibition of human MDA-MB-231 cells assessed as cell growth at 3X10'-5 M after 48 hrs by sulforhodamine B assay", "details": "MDA-MB-231, 48 h, read-out: Activity"}, "[8]": {"system": "UACC-62", "assay": "Growth inhibition of human UACC62 cells assessed as cell growth at 3X10'-8 M after 48 hrs by sulforhodamine B assay", "details": "UACC-62, 48 h, read-out: Activity"}, "[9]": {"system": "SNB-19", "assay": "Growth inhibition of human SNB19 cells assessed as cell growth at 3X10'-8 M after 48 hrs by sulforhodamine B assay", "details": "SNB-19, 48 h, read-out: Activity"}, "[10]": {"system": "SF-539", "assay": "Growth inhibition of human SF539 cells assessed as cell growth at 3X10'-8 M after 48 hrs by sulforhodamine B assay", "details": "SF-539, 48 h, read-out: Activity"}, "[11]": {"system": "KM12", "assay": "Growth inhibition of human KM12 cells assessed as cell growth at 3X10'-8 M after 48 hrs by sulforhodamine B assay", "details": "KM12, 48 h, read-out: Activity"}, "[12]": {"system": "NCI-H522", "assay": "Growth inhibition of human NCI-H522 cells assessed as cell growth at 3X10'-8 M after 48 hrs by sulforhodamine B assay", "details": "NCI-H522, 48 h, read-out: Activity"}, "[13]": {"system": "RPMI-8226", "assay": "Growth inhibition of human RPMI8226 cells assessed as cell growth at 3X10'-8 M after 48 hrs by sulforhodamine B assay", "details": "RPMI-8226, 48 h, read-out: Activity"}, "[14]": {"system": "T47D", "assay": "Growth inhibition of human T47D cells assessed as cell growth at 3X10'-9 M after 48 hrs by sulforhodamine B assay", "details": "read-out: Activity"}, "[15]": {"system": "A498", "assay": "Growth inhibition of human A498 cells assessed as cell growth at 3X10'-5 M after 48 hrs by sulforhodamine B assay", "details": "A498, 48 h, read-out: Activity"}, "[16]": {"assay": "Growth inhibition of human NCI-ADR-RES cells assessed as cell growth at 3X10'-9 M after 48 hrs by sulforhodamine B assay", "details": "read-out: Activity"}, "[17]": {"system": "OVCAR-8", "assay": "Growth inhibition of human OVCAR8 cells assessed as cell growth at 3X10'-9 M after 48 hrs by sulforhodamine B assay", "details": "OVCAR-8, 48 h, read-out: Activity"}, "[18]": {"system": "IGROV-1", "assay": "Growth inhibition of human IGROV1 cells assessed as cell growth at 3X10'-5 M after 48 hrs by sulforhodamine B assay", "details": "IGROV-1, 48 h, read-out: Activity"}, "[19]": {"system": "UACC-62", "assay": "Growth inhibition of human UACC62 cells assessed as cell growth at 3X10'-5 M after 48 hrs by sulforhodamine B assay", "details": "UACC-62, 48 h, read-out: Activity"}, "[20]": {"system": "SF-295", "assay": "Growth inhibition of human SF295 cells assessed as cell growth at 3X10'-5 M after 48 hrs by sulforhodamine B assay", "details": "SF-295, 48 h, read-out: Activity"}, "[21]": {"system": "SF-268", "assay": "Growth inhibition of human SF268 cells assessed as cell growth at 3X10'-5 M after 48 hrs by sulforhodamine B assay", "details": "SF-268, 48 h, read-out: Activity"}, "[22]": {"system": "KM12", "assay": "Growth inhibition of human KM12 cells assessed as cell growth at 3X10'-5 M after 48 hrs by sulforhodamine B assay", "details": "KM12, 48 h, read-out: Activity"}, "[23]": {"system": "SR", "assay": "Growth inhibition of human SR cells assessed as cell growth at 3X10'-5 M after 48 hrs by sulforhodamine B assay", "details": "read-out: Activity"}, "[24]": {"system": "K562", "assay": "Growth inhibition of human K562 cells assessed as cell growth at 3X10'-5 M after 48 hrs by sulforhodamine B assay", "details": "K562, 48 h, read-out: Activity"}, "[25]": {"system": "UACC-257", "assay": "Growth inhibition of human UACC257 cells assessed as cell growth at 3X10'-9 M after 48 hrs by sulforhodamine B assay", "details": "UACC-257, 48 h, read-out: Activity"}, "[26]": {"system": "SF-539", "assay": "Growth inhibition of human SF539 cells assessed as cell growth at 3X10'-9 M after 48 hrs by sulforhodamine B assay", "details": "SF-539, 48 h, read-out: Activity"}, "[27]": {"system": "KM12", "assay": "Growth inhibition of human KM12 cells assessed as cell growth at 3X10'-9 M after 48 hrs by sulforhodamine B assay", "details": "KM12, 48 h, read-out: Activity"}, "[28]": {"system": "NCI-H460", "assay": "Growth inhibition of human NCI-H460 cells assessed as cell growth at 3X10'-9 M after 48 hrs by sulforhodamine B assay", "details": "NCI-H460, 48 h, read-out: Activity"}, "[29]": {"system": "NCI-H522", "assay": "Growth inhibition of human NCI-H522 cells assessed as cell growth at 3X10'-9 M after 48 hrs by sulforhodamine B assay", "details": "NCI-H522, 48 h, read-out: Activity"}, "[30]": {"system": "NCI-H23", "assay": "Growth inhibition of human NCI-H23 cells assessed as cell growth at 3X10'-9 M after 48 hrs by sulforhodamine B assay", "details": "NCI-H23, 48 h, read-out: Activity"}, "[31]": {"system": "CAKI-1", "assay": "Growth inhibition of human CAKI-1 cells assessed as cell growth at 3X10'-6 M after 48 hrs by sulforhodamine B assay", "details": "CAKI-1, 48 h, read-out: Activity"}, "[32]": {"system": "U-251", "assay": "Growth inhibition of human U251 cells assessed as cell growth at 3X10'-6 M after 48 hrs by sulforhodamine B assay", "details": "U-251, 48 h, read-out: Activity"}, "[33]": {"system": "SF-268", "assay": "Growth inhibition of human SF268 cells assessed as cell growth at 3X10'-6 M after 48 hrs by sulforhodamine B assay", "details": "SF-268, 48 h, read-out: Activity"}, "[34]": {"system": "RPMI-8226", "assay": "Growth inhibition of human RPMI8226 cells assessed as cell growth at 3X10'-6 M after 48 hrs by sulforhodamine B assay", "details": "RPMI-8226, 48 h, read-out: Activity"}, "[35]": {"system": "MCF7", "assay": "Growth inhibition of human MCF7 cells assessed as cell growth at 3X10'-7 M after 48 hrs by sulforhodamine B assay", "details": "MCF7, 48 h, read-out: Activity"}}, "data": [{"molecule": "O=C(Nc1cccc(-n2cc(-c3ccncc3)c(-c3ccc(Cl)c(O)c3)n2)c1)Nc1ccc(Cl)c(C(F)(F)F)c1", "values": [{"measurement": "growth at 0.3 µM", "setting": "[1]", "result": 90, "unit": "%"}, {"measurement": "growth at 0.3 µM", "setting": "[2]", "result": 98, "unit": "%"}, {"measurement": "growth at 0.3 µM", "setting": "[3]", "result": 93, "unit": "%"}, {"measurement": "growth at 0.3 µM", "setting": "[4]", "result": 73, "unit": "%"}, {"measurement": "growth at 0.3 µM", "setting": "[5]", "result": 138, "unit": "%"}, {"measurement": "growth at 0.03 µM", "setting": "[6]", "result": 85, "unit": "%"}, {"measurement": "growth at 30 µM", "setting": "[7]", "result": -60, "unit": "%"}, {"measurement": "growth at 0.03 µM", "setting": "[8]", "result": 95, "unit": "%"}, {"measurement": "growth at 0.03 µM", "setting": "[9]", "result": 94, "unit": "%"}, {"measurement": "growth at 0.03 µM", "setting": "[10]", "result": 94, "unit": "%"}, {"measurement": "growth at 0.03 µM", "setting": "[11]", "result": 103, "unit": "%"}, {"measurement": "growth at 0.03 µM", "setting": "[12]", "result": 101, "unit": "%"}, {"measurement": "growth at 0.03 µM", "setting": "[13]", "result": 89, "unit": "%"}, {"measurement": "growth at 0.003 µM", "setting": "[14]", "result": 102, "unit": "%"}, {"measurement": "growth at 30 µM", "setting": "[15]", "result": -49, "unit": "%"}, {"measurement": "growth at 0.003 µM", "setting": "[16]", "result": 102, "unit": "%"}, {"measurement": "growth at 0.003 µM", "setting": "[17]", "result": 100, "unit": "%"}, {"measurement": "growth at 30 µM", "setting": "[18]", "result": -47, "unit": "%"}, {"measurement": "growth at 30 µM", "setting": "[19]", "result": -83, "unit": "%"}, {"measurement": "growth at 30 µM", "setting": "[20]", "result": -41, "unit": "%"}, {"measurement": "growth at 30 µM", "setting": "[21]", "result": -20, "unit": "%"}, {"measurement": "growth at 30 µM", "setting": "[22]", "result": -70, "unit": "%"}, {"measurement": "growth at 30 µM", "setting": "[23]", "result": -7, "unit": "%"}, {"measurement": "growth at 30 µM", "setting": "[24]", "result": 1, "unit": "%"}, {"measurement": "growth at 0.003 µM", "setting": "[25]", "result": 97, "unit": "%"}, {"measurement": "growth at 0.003 µM", "setting": "[26]", "result": 99, "unit": "%"}, {"measurement": "growth at 0.003 µM", "setting": "[27]", "result": 101, "unit": "%"}, {"measurement": "growth at 0.003 µM", "setting": "[28]", "result": 103, "unit": "%"}, {"measurement": "growth at 0.003 µM", "setting": "[29]", "result": 96, "unit": "%"}, {"measurement": "growth at 0.003 µM", "setting": "[30]", "result": 97, "unit": "%"}, {"measurement": "growth at 3 µM", "setting": "[31]", "result": -9, "unit": "%"}, {"measurement": "growth at 3 µM", "setting": "[32]", "result": -61, "unit": "%"}, {"measurement": "growth at 3 µM", "setting": "[33]", "result": 10, "unit": "%"}, {"measurement": "growth at 3 µM", "setting": "[34]", "result": -20, "unit": "%"}, {"measurement": "growth at 0.3 µM", "setting": "[35]", "result": 71, "unit": "%"}]}]}
